Data on 29 compounds can be found in ChEMBL document CHEMBL4823268 (Eur J Med Chem, 2021).

Calls of active or inactive are those of the source. The calls are words filed in the database; no cut-off is given here. Where only a bound is given, the exact number is not on record here.

Data set [1] has as its target T1, Glycogen synthase kinase-3 beta (Homo sapiens, UniProt P49841). Kind of data set: biochemical. In kind it is cell-based, Sf9.
Target sequence in this assay (P49841 whole entry): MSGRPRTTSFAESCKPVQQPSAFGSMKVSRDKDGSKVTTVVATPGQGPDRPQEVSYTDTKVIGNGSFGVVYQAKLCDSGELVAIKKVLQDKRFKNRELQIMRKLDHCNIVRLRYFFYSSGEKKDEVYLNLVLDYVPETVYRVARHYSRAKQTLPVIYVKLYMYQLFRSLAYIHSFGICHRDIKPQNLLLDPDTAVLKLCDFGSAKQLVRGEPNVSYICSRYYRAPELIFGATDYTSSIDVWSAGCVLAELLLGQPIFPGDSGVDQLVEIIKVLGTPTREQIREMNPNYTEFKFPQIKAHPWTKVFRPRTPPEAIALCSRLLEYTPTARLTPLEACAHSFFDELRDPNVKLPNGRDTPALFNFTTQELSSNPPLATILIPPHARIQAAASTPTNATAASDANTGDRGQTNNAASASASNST
Data set [2] can be described thus: Permeability of compound by PAMPA-BBB assay.
The subject of data set [3] is Mus musculus. Nature of the data set: Cognitive enhancing effect in mouse harboring APP/PSI/Tau assessed as improvement in number of crossing the virtual platform at 10 to 30 mg/kg, po for 30 consecutive days and studied for 5 days by Morris water maze test relative to control. Format: functional, organism-based. The note with it: dose 10-30 mg/kg, time 30.0 day.
In data set [4] the target is Dual specificity tyrosine-phosphorylation-regulated kinase 1A (Homo sapiens) (UniProt Q13627). Nature of the data set: Inhibition of DYRK1A in human SH-SY5Y cells assessed as decrease in OKA-induce DYRK1A-Tyr321/27 hyperphosphorylation at 250 to 1000 nM by Western blot analysis. The note with it: dose 250-1000 nM. Format: cell-based.
Data set [5] has as its system Mus musculus. Kind of data set: Cognitive enhancing effect in mouse harboring APP/PSI/Tau assessed as improvement in time spent in the platform quadrant at 10 to 30 mg/kg, po for 30 consecutive days and studied for 5 days by Morris water maze test relative to control. Format: functional, organism-based. The note with it: dose 10-30 mg/kg, time 30.0 day.
Data set [6] has as its system Mus musculus. Nature of the data set: Improvement in learning and spatial memory in mouse harboring APP/PSI/Tau assessed as decrease in escape latency at 10 to 30 mg/kg, po for 30 consecutive days and studied for 5 days by Morris water maze test relative to control. In kind it is functional, organism-based. The note with it: dose 10-30 mg/kg, time 30.0 day.
Data set [7] deals with T1, Glycogen synthase kinase-3 beta. Nature of the data set: Inhibition of human full length GSK3beta expressed in baculovirus in Sf9 insect cells assessed as enzyme activity using YRRAAVPPSPSLSRHSSPHQ(pS)EDEEE as substrate at 0.14 uM by ADP-Glo kinase assay relative to control. Set-up: scale not given: the % may be the effect or the level left.
Target sequence in this assay (P49841 whole entry, looked up): as the sequence (P49841 whole entry) above
Data set [8] has the same target. Kind of data set: Inhibition of GSK3beta in human SH-SY5Y cells assessed as decrease in OKA-induce tau-S396 hyperphosphorylation at 250 to 1000 nM by Western blot analysis. The note with it: dose 250-1000 nM. In kind it is cell-based.
Target sequence in this assay (P49841 whole entry, looked up): as the sequence (P49841 whole entry) above
Data set [9] has as its system SH-SY5Y. Nature of the data set: Reduction in neurofibrillary tangles formation in OKA-treated human SH-SY5Y cells at 250 to 1000 nM by Western blot analysis. In kind it is functional, cell-based. The note with it: dose 250-1000 nM.
The target of data set [10] is T1, Glycogen synthase kinase-3 beta. Nature of the data set: Inhibition of GSK3beta phosphorylation expression in human SH-SY5Y cells at 250 to 1000 nM by Western blot analysis. Format: cell-based. The note with it: dose 250-1000 nM.
Target sequence in this assay (P49841 whole entry, looked up): as the sequence (P49841 whole entry) above
The nature of data set [11]: Neurotoxicity against human SH-SY5Y cells assessed as cell viability at 10 uM measured for 24 to 72 hrs by MTT assay. The note with it: time 24-72 hrs. In kind it is cell-based.
For data set [12], the target named is T1, Glycogen synthase kinase-3 beta. Kind of data set: Inhibition of human full length GSK3beta expressed in baculovirus in Sf9 insect cells assessed as enzyme activity using YRRAAVPPSPSLSRHSSPHQ(pS)EDEEE as substrate at 0.7 uM by ADP-Glo kinase assay relative to control. More on the design: scale not given: the % may be the effect or the level left.
Target sequence in this assay (P49841 whole entry, looked up): as the sequence (P49841 whole entry) above
A short description of data set [13]: Neurotoxicity against human SH-SY5Y cells assessed as cell viability at 15 to 20 uM measured for 36 to 72 hrs by MTT assay. In kind it is cell-based. The note with it: dose lower 15 µM, time lower 36 hrs, dose upper 20 µM, time upper 72 hrs.
In data set [14] the target is T1, Glycogen synthase kinase-3 beta. Kind of data set: Inhibition of GSK3beta in human SH-SY5Y cells assessed as increase in OKA-induce GSK3beta at serine 9 hyperphosphorylation by Western blot analysis. In kind it is cell-based.
Target sequence in this assay (P49841 whole entry, looked up): as the sequence (P49841 whole entry) above
The test system of data set [15] is L02. Kind of data set: Cytotoxicity against human HL7702 cells assessed as cell viability measured at 5 to 20 uM for 24 to 72 hrs by MTT assay. In kind it is cell-based. The note with it: l02, 20 µM, dose lower 5 µM, time lower 24 hrs, dose upper 20 µM, time upper 72 hrs.
The test system of data set [16] is Mus musculus. Nature of the data set: Improvement in learning and spatial memory in mouse harboring APP/PSI/Tau assessed as improvement in trajectory at […], po for 30 consecutive days and studied for 5 days by Morris water maze test relative to control. The note with it: time 5.0 day. In kind it is functional, organism-based.
In data set [17] the target is Dual specificity tyrosine-phosphorylation-regulated kinase 1A (Rattus norvegicus, UniProt Q63470). Kind of data set: Inhibition of rat recombinant DYRK1A expressed in Escherichia coli using RRRFRPASPLRGPPK as substrate by ADP-Glo kinase assay.
In data set [18] the test system is Mus musculus. Kind of data set: Improvement in learning and spatial memory in mouse harboring APP/PSI/Tau assessed as improvement in trajectory at 20 mg/kg, po for 30 consecutive days and studied for 5 days by Morris water maze test relative to control. In kind it is functional, organism-based. The note with it: time 30.0 day.

Consider `COC(=O)c1ccc2c(c1)[nH]c1cnc(NC(=O)C3CC3)cc12`, for which the half-maximal inhibitory concentration (IC50) in data set [1] is greater than 10 µM.

In [1], `COc1ccc(-c2ccc3c(c2)[nH]c2c(NC(=O)C4CC4)nccc23)cc1` yielded an IC50 greater than 10 µM.

`COc1ccc2c(c1)[nH]c1c(NC(=O)C3CC3)nccc12` yielded a 50% inhibitory concentration (IC50) in [1] of 0.144 µM. Also, the apparent permeability coefficient (Papp) in [2] worked out at 15.6 ×10⁻⁶ cm/s.

`O=C(Nc1cc2c(cn1)[nH]c1cc(OC(F)(F)F)ccc12)C1CC1`: the IC50 in data set [1] is greater than 10 µM.

Take `COC(=O)c1ccc2c(c1)[nH]c1c(NC(=O)C3CC3)nccc12`: the outcome in data set [3], in data set [4], in data set [5], in data set [6], in [8] and in [9] was Active. Also, the result in data set [10] was Active. In addition, the IC50 in data set [1] turned out to be 0.071 µM. Further, the Activity in [7] was 10%; in data set [11] it was “Non-Toxic”; in data set [12], 1%; in data set [13], “Non-Toxic”; in [14] it was “Dose-Dependent Effect”; in data set [15] it was “Toxic”. Further, the Papp in data set [2] turned out to be 16.5 ×10⁻⁶ cm/s.

`O=C(Nc1cc2c(cn1)[nH]c1cc(-c3cccnc3)ccc12)C1CC1` returned an IC50 in data set [1] greater than 10 µM.

For the compound `[Cl-].[Li+]`, in data set [16], the result was Active.

Consider `O=C(Nc1nccc2c1[nH]c1cc(Cl)ccc12)C1CC1`, for which inhibition in data set [1] was half-maximal at 5.15 µM (IC50). The Papp in [2] amounted to 21.5 ×10⁻⁶ cm/s.

Consider `O=C(Nc1cc2c(cn1)[nH]c1cc(C(F)(F)F)ccc12)C1CC1`, for which, in data set [1], the half-maximal inhibitory concentration (IC50) was greater than 10 µM.

In data set [1], `N#Cc1ccc2c(c1)[nH]c1c(NC(=O)C3CC3)nccc12` yielded a half-maximal inhibitory concentration (IC50) greater than 10 µM.

`COc1ccc(-c2ccc3c(c2)[nH]c2cnc(NC(=O)C4CC4)cc23)cc1` came in with a concentration for half-maximal inhibition (IC50) in [1] greater than 10 µM.

With `O=C(Nc1nccc2c1[nH]c1cc(-c3ccccc3)ccc12)C1CC1`, the IC50 in [1] is 6.59 µM.

Consider `O=C(Nc1nccc2c1[nH]c1cc(F)ccc12)C1CC1`, for which half-maximal inhibition in data set [1] (IC50) required 4.8 µM. Moreover, in data set [2], the apparent permeability (Papp) is 33.3 ×10⁻⁶ cm/s.

`O=C(Nc1nccc2c1[nH]c1cc(C(F)(F)F)ccc12)C1CC1` gave a half-maximal inhibitory concentration (IC50) in data set [1] greater than 10 µM.

As to `COc1ccc2c(c1)[nH]c1cnc(NC(=O)C3CC3)cc12`, the IC50 in [1] came out at 8.1 µM.

`O=Cc1ccc2c(c1)[nH]c1cnc(NC(=O)C3CC3)cc12` came in with an IC50 in data set [1] greater than 10 µM.

In data set [2], `Cn1c(=O)c2c(ncn2C)n(C)c1=O` [CAFFEINE] returned a Papp of 3.2 ×10⁻⁶ cm/s.

Take `O=C(Nc1cc2c(cn1)[nH]c1cc(F)ccc12)C1CC1`: the half-inhibitory concentration (IC50) in data set [1] is greater than 10 µM.

As to `N#Cc1ccc2c(c1)[nH]c1cnc(NC(=O)C3CC3)cc12`, the IC50 in data set [1] is greater than 10 µM.

Regarding `O=C(Nc1cc2c(cn1)[nH]c1cc(Cl)ccc12)C1CC1`, the half-maximal inhibitory concentration (IC50) in [1] was greater than 10 µM.

`NC(=O)c1ccc2c(c1)[nH]c1cnc(NC(=O)C3CC3)cc12` had an IC50 in data set [1] greater than 10 µM.

As for `O=C(Nc1nccc2c1[nH]c1cc(OC(F)(F)F)ccc12)C1CC1`, the concentration for half-maximal inhibition (IC50) in data set [1] is 7.62 µM.

In data set [1], `NC(=O)c1ccc2c(c1)[nH]c1c(NC(=O)C3CC3)nccc12` showed an IC50 of 0.2 µM. This compound also yielded an apparent permeability (Papp) in [2] of 0.7 ×10⁻⁶ cm/s.

`CN[C@@H]1C[C@H]2O[C@@](C)([C@@H]1OC)n1c3ccccc3c3c4c(c5c6ccccc6n2c5c31)C(=O)NC4` [STAUROSPORINE]: the concentration for half-maximal inhibition (IC50) in [17] was 0.012 µM.

In turn, `O=C(Nc1nccc2c1[nH]c1cc(-c3cccnc3)ccc12)C1CC1` registered an IC50 in [1] greater than 10 µM.

Regarding `O=Cc1ccc2c(c1)[nH]c1c(NC(=O)C3CC3)nccc12`, the half-maximal inhibitory concentration (IC50) in data set [1] amounted to 0.4 µM. In addition, the Papp in data set [2] worked out at 14.3 ×10⁻⁶ cm/s.

In the case of `COc1ccc2c(c1)[nH]c1c(C)nccc12` [HARMINE], the Papp in [2] came out at 44.6 ×10⁻⁶ cm/s. For the same compound, the result in data set [18] was Active.

In data set [1], `COc1ccc2c(c1)[nH]c1cnc(C)cc12` came in with a half-maximal inhibitory concentration (IC50) greater than 10 µM.

On to `Clc1cccc(Cl)c1N=C1NCCN1` [CLONIDINE], for which, in [2], the Papp was 4 ×10⁻⁶ cm/s.
